Assay [1] concerns the target Aldo-keto reductase family 1 member B1 (Rattus norvegicus, UniProt P07943). It counts as tissue-based, Lens of camera-type eye.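 Further: inhibition of aldose reductase enzyme activity, measured with DL-glyceraldehyde as the substrate; in other assays of this panel Not Active means under 50% inhibition at 10 µM.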
Assay [2] concerns the target T1, Type-2 angiotensin II receptor (Homo sapiens, UniProt P50052). Further: in other assays of this panel Not Active means under 50% inhibition at 10 µM.
T1 sequence (P50052 whole entry): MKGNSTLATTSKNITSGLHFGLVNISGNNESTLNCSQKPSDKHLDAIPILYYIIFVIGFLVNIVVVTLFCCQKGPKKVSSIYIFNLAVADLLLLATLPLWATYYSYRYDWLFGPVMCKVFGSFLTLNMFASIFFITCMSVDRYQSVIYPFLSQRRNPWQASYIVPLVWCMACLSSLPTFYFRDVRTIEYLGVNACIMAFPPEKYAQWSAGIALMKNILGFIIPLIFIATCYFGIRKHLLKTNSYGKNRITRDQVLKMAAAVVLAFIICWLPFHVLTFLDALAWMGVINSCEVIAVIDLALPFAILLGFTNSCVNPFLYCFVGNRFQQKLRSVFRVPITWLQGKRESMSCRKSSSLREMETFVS
It is filed as cell-based. The note with it: cho-k1.

Assay [3] concerns the target Sodium-dependent dopamine transporter (Homo sapiens, UniProt Q01959). In words: DRUGMATRIX: Dopamine Transporter radioligand binding (ligand: [125I] RTI-55). It counts as cell membranes, CHO-K1, Membrane. As to conditions: cho-k1; Not Active = under 50% inhibition at 10 µM.
Assay [4] addresses T2, Receptor-type tyrosine-protein phosphatase C (Homo sapiens, UniProt P08575).
T2 sequence (P08575 whole entry): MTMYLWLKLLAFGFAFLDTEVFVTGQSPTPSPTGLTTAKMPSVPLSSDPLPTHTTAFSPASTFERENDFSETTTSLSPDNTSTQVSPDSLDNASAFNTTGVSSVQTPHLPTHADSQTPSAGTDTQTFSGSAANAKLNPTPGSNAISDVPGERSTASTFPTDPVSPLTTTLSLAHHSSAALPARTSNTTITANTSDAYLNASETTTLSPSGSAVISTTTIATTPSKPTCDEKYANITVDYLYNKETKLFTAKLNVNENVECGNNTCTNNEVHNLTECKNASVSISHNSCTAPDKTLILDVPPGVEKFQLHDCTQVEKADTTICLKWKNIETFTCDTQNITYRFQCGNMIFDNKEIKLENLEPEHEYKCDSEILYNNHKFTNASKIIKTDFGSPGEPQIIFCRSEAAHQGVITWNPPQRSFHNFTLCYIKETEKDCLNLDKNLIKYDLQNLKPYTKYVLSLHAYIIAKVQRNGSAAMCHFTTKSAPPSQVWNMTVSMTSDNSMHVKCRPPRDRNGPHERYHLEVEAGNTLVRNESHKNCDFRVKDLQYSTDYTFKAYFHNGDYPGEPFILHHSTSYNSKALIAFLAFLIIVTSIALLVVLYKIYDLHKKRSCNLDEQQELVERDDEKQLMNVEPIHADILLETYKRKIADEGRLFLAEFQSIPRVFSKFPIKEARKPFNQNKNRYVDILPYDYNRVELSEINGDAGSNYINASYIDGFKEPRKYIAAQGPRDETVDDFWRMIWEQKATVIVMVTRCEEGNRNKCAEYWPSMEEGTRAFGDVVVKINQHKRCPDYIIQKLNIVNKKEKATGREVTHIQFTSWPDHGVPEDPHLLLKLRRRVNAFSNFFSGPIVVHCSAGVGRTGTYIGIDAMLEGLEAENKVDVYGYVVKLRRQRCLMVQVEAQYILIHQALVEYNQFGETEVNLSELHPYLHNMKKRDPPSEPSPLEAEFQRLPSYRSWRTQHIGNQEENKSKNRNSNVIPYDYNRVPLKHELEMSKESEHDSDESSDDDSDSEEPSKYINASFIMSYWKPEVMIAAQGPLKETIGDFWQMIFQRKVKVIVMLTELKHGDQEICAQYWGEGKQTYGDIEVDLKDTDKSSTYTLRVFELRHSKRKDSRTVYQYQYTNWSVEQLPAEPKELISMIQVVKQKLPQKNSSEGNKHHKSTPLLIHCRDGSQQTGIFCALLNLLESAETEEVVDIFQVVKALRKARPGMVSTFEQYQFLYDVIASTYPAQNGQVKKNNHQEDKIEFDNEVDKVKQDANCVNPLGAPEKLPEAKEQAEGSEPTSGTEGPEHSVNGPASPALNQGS
On the set-up: species or system Escherichia coli.

Assay [5] deals with T3, Muscarinic acetylcholine receptor M5 (Homo sapiens, UniProt P08912).
T3 sequence (P08912 whole entry): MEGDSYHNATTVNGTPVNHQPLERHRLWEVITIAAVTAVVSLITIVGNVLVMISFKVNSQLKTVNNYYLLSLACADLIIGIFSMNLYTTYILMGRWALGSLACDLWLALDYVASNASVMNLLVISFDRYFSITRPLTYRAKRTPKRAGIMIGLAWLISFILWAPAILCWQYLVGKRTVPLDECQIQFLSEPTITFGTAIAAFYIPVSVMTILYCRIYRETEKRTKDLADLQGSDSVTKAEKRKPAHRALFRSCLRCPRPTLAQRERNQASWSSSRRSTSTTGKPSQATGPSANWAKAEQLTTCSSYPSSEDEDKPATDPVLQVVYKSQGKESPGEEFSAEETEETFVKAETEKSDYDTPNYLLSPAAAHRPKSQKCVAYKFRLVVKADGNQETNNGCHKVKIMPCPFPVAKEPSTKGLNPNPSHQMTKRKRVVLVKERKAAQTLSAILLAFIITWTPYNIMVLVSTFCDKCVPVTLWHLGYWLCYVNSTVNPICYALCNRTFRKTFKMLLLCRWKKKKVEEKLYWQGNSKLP
It is filed as cell membranes, CHO-K1, Membrane. As to conditions: cho-k1.

Assay [6] addresses T4, Alpha-2A adrenergic receptor (Homo sapiens, UniProt P08913).
T4 sequence (P08913 whole entry): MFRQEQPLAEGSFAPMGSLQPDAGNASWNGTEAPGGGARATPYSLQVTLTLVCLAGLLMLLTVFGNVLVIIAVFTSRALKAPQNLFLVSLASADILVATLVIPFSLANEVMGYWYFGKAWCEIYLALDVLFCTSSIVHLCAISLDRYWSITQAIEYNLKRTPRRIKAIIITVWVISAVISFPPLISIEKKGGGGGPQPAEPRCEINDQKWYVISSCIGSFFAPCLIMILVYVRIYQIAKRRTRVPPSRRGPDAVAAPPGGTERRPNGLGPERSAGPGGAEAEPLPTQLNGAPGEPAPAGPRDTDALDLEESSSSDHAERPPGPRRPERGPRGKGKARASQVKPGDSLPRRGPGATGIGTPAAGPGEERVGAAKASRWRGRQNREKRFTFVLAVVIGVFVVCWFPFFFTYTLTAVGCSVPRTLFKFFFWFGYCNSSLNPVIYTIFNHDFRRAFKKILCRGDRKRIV
It is filed as cell membranes, Sf9, Membrane.

Assay [7] can be described thus: DRUGMATRIX: Sodium/nucleoside co-transporter radioligand binding (ligand: nitrobenzylthioinosine). It counts as cell membranes, Cavia porcellus, Dunkin-Hartley, Cerebral cortex, Membrane. The note with it: Not Active = under 50% inhibition at 10 µM.

Sequence of Sodium-dependent dopamine transporter (Q01959 whole entry): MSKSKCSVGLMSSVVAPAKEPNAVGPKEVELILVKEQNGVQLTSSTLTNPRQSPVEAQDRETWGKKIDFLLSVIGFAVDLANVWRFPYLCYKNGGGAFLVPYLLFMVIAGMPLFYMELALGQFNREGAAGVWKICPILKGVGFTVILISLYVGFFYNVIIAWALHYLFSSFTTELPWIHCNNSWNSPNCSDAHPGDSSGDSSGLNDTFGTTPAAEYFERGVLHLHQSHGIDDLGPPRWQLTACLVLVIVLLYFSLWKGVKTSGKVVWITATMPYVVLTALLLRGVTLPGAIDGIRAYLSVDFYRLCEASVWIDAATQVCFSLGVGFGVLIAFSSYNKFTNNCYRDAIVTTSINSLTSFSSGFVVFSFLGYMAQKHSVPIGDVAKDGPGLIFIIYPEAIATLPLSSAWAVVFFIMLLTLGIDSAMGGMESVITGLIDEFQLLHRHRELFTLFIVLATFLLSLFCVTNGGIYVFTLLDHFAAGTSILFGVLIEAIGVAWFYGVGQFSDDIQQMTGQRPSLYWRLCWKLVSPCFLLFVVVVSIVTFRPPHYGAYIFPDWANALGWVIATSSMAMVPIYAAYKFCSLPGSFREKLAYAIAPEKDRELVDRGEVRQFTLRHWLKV

What is called IC50 is the concentration needed to halve the response being measured. Broadly, the Ki is the equilibrium dissociation constant of an inhibitor or competing ligand from its target. For the compound `C=C1CC[C@H](O)C/C1=C/C=C1\CCC[C@]2(C)[C@@H]([C@H](C)/C=C/[C@H](C)C(C)C)CC[C@@H]12` [ERGOCALCIFEROL], the IC50 entry in assay [1], in assay [2], in assay [3], in assay [4], in assay [5] and in assay [6] (sf9) was “Not Active” in each case. Besides, the half-inhibitory concentration (IC50) entry in assay [7] was “Not Active”. For the same compound, the inhibition constant (Ki) entry in assay [7] was “Not Active”.
In the case of `CCc1cccc2c3c([nH]c12)C(CC)(CC(=O)O)OCC3` (configuration not stated) [ETODOLAC], the IC50 result in assay [1], in assay [2], in assay [3], in assay [4], in assay [5] and in assay [6] (sf9) was “Not Active” each time. For the same compound, the 50% inhibitory concentration (IC50) entry in assay [7] is “Not Active”. The inhibitory constant (Ki) result in assay [7] is “Not Active”.
Turning to CARBOPLATIN, the IC50 entry in assay [1], in assay [2], in assay [3], in assay [4], in assay [5] and in assay [6] (sf9) was “Not Active” throughout. Also, the IC50 entry in assay [7] was “Not Active”. Besides, the inhibition constant (Ki) entry in assay [1], in assay [2], in assay [3], in assay [4], in assay [5] and in assay [6] (sf9) was “Not Active” in each case. Besides, the inhibition constant Ki entry in assay [7] was “Not Active”.
`Cn1cnc([N+](=O)[O-])c1Sc1ncnc2nc[nH]c12` [AZATHIOPRINE]: the IC50 result in assay [1], in assay [2], in assay [3], in assay [4], in assay [5] and in assay [6] (sf9) was “Not Active” each time. The IC50 result in assay [7] is “Not Active”. In assay [7], the Ki result is reported as “Not Active”.
Take `N=C(N)NCCCCNC(=N)N.O=S(=O)(O)O` [ARCAINE SULFATE]: the IC50 entry in assay [1], in assay [2], in assay [3], in assay [4], in assay [5] and in assay [6] (sf9) was “Not Active” each time. Also, the concentration for half-maximal inhibition (IC50) entry in assay [7] is reported as “Not Active”. In addition, the inhibitory constant (Ki) result in assay [7] was “Not Active”.
As for `CC1(C)[C@@H](O[C@H]2O[C@H](C(=O)O)[C@@H](O)[C@H](O)[C@H]2O[C@@H]2O[C@H](C(=O)O)[C@@H](O)[C@H](O)[C@H]2O)CC[C@]2(C)[C@H]3C(=O)C=C4[C@@H]5C[C@@](C)(C(=O)O)CC[C@]5(C)CC[C@@]4(C)[C@]3(C)CC[C@@H]12` [GLYCYRRHIZIN], the concentration for half-maximal inhibition (IC50) result in assay [1], in assay [2], in assay [3], in assay [4], in assay [5] and in assay [6] (sf9) was “Not Active” each time. In addition, the IC50 entry in assay [7] is on record as “Not Active”. In assay [7], the inhibition constant Ki result is listed as “Not Active”.
In the case of `NCC[C@H](O)C(=O)N[C@@H]1C[C@H](N)[C@@H](O[C@H]2O[C@H](CN)[C@@H](O)[C@H](O)[C@H]2O)[C@H](O)[C@H]1O[C@H]1O[C@H](CO)[C@@H](O)[C@H](N)[C@H]1O` [AMIKACIN], the IC50 entry in assay [1], in assay [2], in assay [3], in assay [4], in assay [5] and in assay [6] (sf9) was “Not Active” each time. Further, the concentration for half-maximal inhibition (IC50) result in assay [7] was “Not Active”. For the same compound, the inhibition constant Ki result in assay [7] was “Not Active”.
Turning to `Cc1[nH]cnc1CN1CCc2c(c3ccccc3n2C)C1=O` [ALOSETRON], the IC50 entry in assay [1], in assay [2], in assay [3], in assay [4], in assay [5] and in assay [6] (sf9) was “Not Active” throughout. Further, in assay [7], the 50% inhibitory concentration (IC50) result is on record as “Not Active”. In addition, in assay [7], the Ki entry was “Not Active”.
Turning to `CN1C[C@H](C(=O)N[C@]2(C)O[C@@]3(O)[C@@H]4CCCN4C(=O)[C@H](Cc4ccccc4)N3C2=O)C=C2c3cccc4[nH]cc(c34)C[C@H]21` [ERGOTAMINE], the half-inhibitory concentration (IC50) result in assay [1] is “Not Active”; in assay [2], “Not Active”; in assay [3], “Not Active”; in assay [4], “Not Active”; in assay [5] it was “Not Active”; in assay [6] (read-out: IC50), 2.12 nM. In assay [7], the IC50 result was “Not Active”. Besides, the Ki in assay [6] (read-out: Ki) is 0.796 nM; in assay [7], “Not Active”.
Take `CN(C)[C@@H]1C(O)=C(C(N)=O)C(=O)[C@@]2(O)C(O)=C3C(=O)c4c(O)cccc4[C@@](C)(O)[C@H]3[C@H](O)[C@@H]12` [OXYTETRACYCLINE]: the IC50 result in assay [1], in assay [2], in assay [3], in assay [4], in assay [5] and in assay [6] (sf9) was “Not Active” in each case. In assay [7], the IC50 result is “Not Active”. Besides, in assay [7], the Ki result is recorded as “Not Active”.

The record behind these values is ChEMBL document CHEMBL1909046, “DrugMatrix in vitro pharmacology data”.
